These results are taken from publication PMC12040169 (PLOS Biology, 2025).

In general, viability refers to a read-out of living cells in per cent, often relative to untreated cells.

Each structure is given as a SMILES string.

The nature of the first data set: in vitro. The following applies: human, hela cells, % viability.
Turning to `O=C1c2ccccc2CN1c1ccc(OC(F)(F)F)cc1` [CBK113237], the viability at 28.5 h, 10 µM was found to be 91.3%.

Regarding `O=C(NCO)c1ccccc1O` [CBK012717], the viability at 28.5 h, 10 µM worked out at 93.9%.

Regarding `CC(=O)Oc1cccc(NC(=O)CC2Sc3ccccc3NC2=O)c1` (stereo not drawn) [CBK261792], the viability at 28.5 h, 10 µM was determined as 92%.

`COc1cc(-c2cc(Nc3ccc(N(C)C)cc3)ncn2)cc(OC)c1OC` [CBK090945]: the viability at 28.5 h, 10 µM was 38.7%.

Regarding `CCCC/C=C/c1cnc(N)c(N[C@H](C)c2ccccc2)n1` [CBK064148], the viability at 28.5 h, 10 µM worked out at 95.1%.

`O=C(CCC1CCCC1)n1ccn(C(c2ccccc2)c2ccccc2)c1=O` [CBK106619]: the viability at 28.5 h, 10 µM was 103%.

As to `CN1CCN(C(=O)c2[nH]c3ccccc3c2NS(=O)(=O)Cc2ccccc2)CC1` [CBK050046], the viability at 28.5 h, 10 µM was 93.9%.

Regarding `CN(C(=O)Cn1cc(C(=O)NCC(C)(C)c2ccc(F)cc2)ccc1=O)c1ccccc1` [CBK285662], the viability at 28.5 h, 10 µM stood at 108%.

Turning to `CNC(=O)c1c(NC(=O)c2nc(SCc3ccccc3)ncc2Cl)sc2c1CCCC2` [CBK269087], the viability at 28.5 h, 10 µM is 93.9%.

For `Cc1cc(C)n(CCCNC(=O)Cc2csc(N3CCCC3=O)n2)n1` [CBK305708], the viability at 28.5 h, 10 µM is 94.6%.

As to `CC1(C)CC(=O)C2=C(C1)N=C(Nc1nc3ccccc3o1)NC2c1ccccn1` (stereo not drawn) [CBK269978], the viability at 28.5 h, 10 µM stood at 88.8%.

Regarding `Cc1nccn1CCCn1cncc1-c1ccc2c(c1)CC(C)(C)O2` [CBK281809], the viability at 28.5 h, 10 µM came to 106%.

Turning to `CCOc1ccc(NC(=O)N(CCOC)Cc2cnn(C)c2)cc1Cl` [CBK306697], the viability at 28.5 h, 10 µM worked out at 90.3%.

Regarding `CCCCCNC(=O)C(Cc1ccc(O)c(C(=O)OCc2ccccc2)c1)NC(=O)OC(C)(C)C` (stereo not drawn) [CBK001708], the viability at 28.5 h, 10 µM was 96.2%.

Regarding `O=c1/c(=C/c2ccc(N3CCOCC3)cc2)sc2nc3cc(Br)cnc3n12` [CBK262574], the viability at 28.5 h, 10 µM was determined as 86.9%.

Consider `C[C@H]1CN2CCCC2CN1Cc1ccc2c(c1)CCO2` (stereo partly drawn) [CBK285443], for which the viability at 28.5 h, 10 µM was determined as 104%.

Consider `Cc1cc(C)n(CC(=O)N2CCCCC2C(=O)O)n1` (stereo not drawn) [CBK305266], for which the viability at 28.5 h, 10 µM was determined as 91.3%.

With `COCCc1noc(CC2CCN(c3ncncc3C#N)CC2)n1` [CBK304178], the viability at 28.5 h, 10 µM turned out to be 90.5%.

Regarding `Cc1cccc(-c2csc3c(=O)[nH]c(N4CCC5(CC4)OCCO5)nc23)c1` [CBK291142], the viability at 28.5 h, 10 µM came to 102%.

For the compound `O=C([C@H]1C[C@@H](O)[C@H](O)[C@@H]2N=C(Nc3ccc4c(c3)OCO4)S[C@@H]21)N1CCCCC1` [CBK288953], the viability at 28.5 h, 10 µM turned out to be 108%.

Turning to `CC(=O)Nc1ccc(CN2Cc3nc[nH]c3C[C@H]2c2nc(-c3ccc(F)cc3)no2)cc1` [CBK288956], the viability at 28.5 h, 10 µM is 89.7%.

Consider `CC(C)CSc1nnc(-c2ccccc2F)n1CC(C)C` [CBK200091], for which the viability at 28.5 h, 10 µM stood at 95.8%.

Regarding `COc1cccc(Oc2nccnc2-c2cccs2)c1` [CBK107059], the viability at 28.5 h, 10 µM turned out to be 91.6%.

Turning to `O=C(O)C1CCC1C(=O)N1CCN(c2ccc(C(F)(F)F)cn2)CC1` (stereo not drawn) [CBK057147], the viability at 28.5 h, 10 µM was 93.7%.

As for `O=C1CCCN1CC(=O)N1CCCC(c2cc3ccccc3cn2)C1` (stereo not drawn) [CBK285091], the viability at 28.5 h, 10 µM amounted to 99.7%.

As to `Clc1ccc(CN2CCN(c3nccnc3OCc3cccnc3)CC2)cc1Cl` [CBK083128T], the viability at 28.5 h, 10 µM is 105%.

Take `COc1cccc(NC(=O)N[C@H]2CCN3C(=O)[C@@H](Cc4ccccc4)NC(=O)[C@H]23)c1` [CBK289230]: the viability at 28.5 h, 10 µM came to 94.5%.

For `CCCn1c(O)cc(=O)nc1SCC(=O)N1CCCc2ccccc21` [CBK304977], the viability at 28.5 h, 10 µM is 79.1%.

On to `CSc1ccc(-n2cc(-c3ccc(F)cc3F)nn2)cc1` [CBK112979], for which the viability at 28.5 h, 10 µM was 99.3%.

For `CNC(=O)c1sc2ccccc2c1C1CCN(C(=O)CCN(C)c2ccc(F)cc2)C1` (stereo not drawn) [CBK285878], the viability at 28.5 h, 10 µM stood at 96.5%.

As to `O=C1COc2ccccc2CCCCC2(CCCNC2)CN1` (stereo not drawn) [CBK292166], the viability at 28.5 h, 10 µM was determined as 90.5%.

`O=C1NCCNC(=O)C2(C/C=C/COc3ccccc31)CCCN(Cc1cscn1)C2` (stereo not drawn) [CBK292125]: the viability at 28.5 h, 10 µM amounted to 92.2%.

With `Cc1cc(NC(=O)CCn2cc(Br)cn2)no1` [CBK304326], the viability at 28.5 h, 10 µM came to 102%.

Take `O=C(O)CCc1ccc(-c2ccc(F)cc2)n1CC1CCCO1` (stereo not drawn) [CBK268988]: the viability at 28.5 h, 10 µM was determined as 86.5%.

As to `O=C(O)c1ccc(C(=O)Nc2cccc(NC(=O)C3CCCO3)c2)cc1` (stereo not drawn) [CBK268613], the viability at 28.5 h, 10 µM was 105%.

With `O=S(=O)(Nc1cccc(-c2nnn[nH]2)c1)c1sc(Cl)cc1Br` [CBK155035], the viability at 28.5 h, 10 µM stood at 94.6%.

`CCc1nn(CC(=O)NC2CC2)c(=O)c2cc3sccc3n12` [CBK284029]: the viability at 28.5 h, 10 µM was 88.7%.

Turning to `CN(C)c1cccc(-c2nc(-c3occc3C=O)cnc2N)c1` [CBK064001], the viability at 28.5 h, 10 µM was determined as 92.1%.

Consider `O=C(Nc1ccc(N2CCCCC2)c(F)c1)C1CC(=O)N(C2CC2)C1` (stereo not drawn) [CBK281387], for which the viability at 28.5 h, 10 µM is 108%.

`CCOC(=O)c1cnc(SC)nc1NCCc1c[nH]cn1` [CBK086623]: the viability at 28.5 h, 10 µM was determined as 92.6%.

`CC1CCc2c(sc(NC(=O)c3ccno3)c2C(N)=O)C1` (stereo not drawn) [CBK287752]: the viability at 28.5 h, 10 µM is 85.4%.

Turning to `N#Cc1sc(N)c2ccc(-c3ccncc3)nc12` [CBK019761], the viability at 28.5 h, 10 µM turned out to be 105%.

For `Cc1cccc(C(=O)Nc2ccc(-c3nnc(-c4ccc(NC(=O)c5cccc(C)c5)cc4)o3)cc2)c1` [CBK261603], the viability at 28.5 h, 10 µM was 106%.

Consider `O=C(Nc1cc2ccccc2c(N2CCNCC2)n1)c1ccccc1` [CBK028423T], for which the viability at 28.5 h, 10 µM was 104%.

On to `OCc1ccc(-n2ncc(-c3ccc(F)cc3F)n2)cc1` [CBK112731], for which the viability at 28.5 h, 10 µM is 97.3%.

As to `CC(C)c1nc(CCN(C)C(=O)NCc2cnc3cnccn23)no1` [CBK307666], the viability at 28.5 h, 10 µM was 108%.

Consider `Cc1ccccc1Nc1nc(N)nc(CN2CCCC2)n1` [CBK306152], for which the viability at 28.5 h, 10 µM was 102%.

With `Cc1c(C(=O)O)sc(S(=O)(=O)N2CCN(C(=O)Cc3ccccc3)CC2)c1C(=O)O` [CBK297148], the viability at 28.5 h, 10 µM turned out to be 96.2%.

`CCCS(=O)(=O)NC[C@H]1C[C@@H]2CCN1C[C@@H]2c1cc(-c2cccs2)nn1C` [CBK289101]: the viability at 28.5 h, 10 µM was found to be 98.4%.

Take `CCNC(=O)N1CC2(CCN(Cc3ccc4nsnc4c3)CC2)c2ccccc21` [CBK136968]: the viability at 28.5 h, 10 µM was 102%.

On to `COCCn1c(CO)nnc1[C@H]1C[C@@H](NC(=O)c2cc(C)ccc2Cl)C1` [CBK306564], for which the viability at 28.5 h, 10 µM is 81.2%.

For the compound `CN1CN=C2SC3(COC(c4cccc(Br)c4)OC3)C(=O)N2C1` (stereo not drawn) [CBK263700], the viability at 28.5 h, 10 µM was found to be 93.1%.

Turning to `CN(c1ncccc1CNC(=O)c1cccnc1)C1CCCCC1` [CBK306555], the viability at 28.5 h, 10 µM was found to be 103%.

Turning to `O=C(O)CN1C(=O)C(=Cc2ccc(-c3ccc(Br)cc3)o2)SC1=S` [CBK296075], the viability at 28.5 h, 10 µM worked out at 92.2%.

Consider `O=c1cccc2n1CC1CC2CN(Cc2cccc(OCc3ccccc3)c2)C1` (stereo not drawn) [CBK262426], for which the viability at 28.5 h, 10 µM was 102%.

Take `Cc1nc2c(c(N(C)C)n1)CCN(C(=O)c1cnn(C(C)C)c1)C2` [CBK307083]: the viability at 28.5 h, 10 µM was 109%.

Turning to `O=C(CC(Nc1ccc2ccccc2c1)c1ccncc1)c1ccc(Br)cc1` (stereo not drawn) [CBK262209], the viability at 28.5 h, 10 µM turned out to be 98.7%.

For the compound `Cc1cc(=O)c(C#N)c(C)[nH]1` [CBK023326], the viability at 28.5 h, 10 µM was 92.4%.

For the compound `O=C(CSc1nnc(-c2ccncc2)n1-c1ccccc1)N/N=C/c1c[nH]c2ccccc12` [CBK262776], the viability at 28.5 h, 10 µM amounted to 90.5%.

Take `O=C(CCn1cnc2ccccc2c1=O)Nc1ccc(Cl)c(Cl)c1` [CBK266738]: the viability at 28.5 h, 10 µM amounted to 89.6%.

On to `COc1cc(-c2cc(N3CCN(Cc4cccnc4)CC3)n3nccc3n2)cc(OC)c1OC` [CBK037063], for which the viability at 28.5 h, 10 µM came to 95.9%.

On to `CN(C)S(=O)(=O)NCc1ccc2c(c1)OCO2` [CBK264364], for which the viability at 28.5 h, 10 µM came out at 108%.

With `COc1ccc(N2CCN(CC(=O)N3CCC(C(N)=O)CC3)CC2)cc1` [CBK268993], the viability at 28.5 h, 10 µM was determined as 96.6%.

As for `COc1ccc(NC(=S)NC(=O)c2cc3c(C)nn(-c4ccccc4)c3s2)cc1[N+](=O)[O-]` [CBK265324], the viability at 28.5 h, 10 µM was found to be 102%.

For `COc1cc(NC(=O)Cn2cnc3c2c(=O)n(C)c(=O)n3C)c(OC)cc1Cl` [CBK133231], the viability at 28.5 h, 10 µM was 99.2%.

Take `Cc1ccc(C#N)cc1S(=O)(=O)NC1CC(=O)c2ccccc21` (stereo not drawn) [CBK304030]: the viability at 28.5 h, 10 µM is 117%.

Turning to `CNc1sc(C(=O)c2ccc(OC)c(OC)c2)c(N)c1C#N` [CBK270194], the viability at 28.5 h, 10 µM came out at 86.1%.

For the compound `Cc1ccc(CCC2CCN(C(=O)c3ccc(O)nc3)CC2)cc1` [CBK296724], the viability at 28.5 h, 10 µM came to 94.4%.

As to `CC1(C)CC(=O)C(C(=S)Nc2ccccc2)=C(O)C1` [CBK288395], the viability at 28.5 h, 10 µM came to 95.3%.

Take `CS(=O)(=O)N(Cc1ccco1)Cc1cc2ccccc2nc1O` [CBK269434]: the viability at 28.5 h, 10 µM stood at 111%.

As for `CCOc1ccc(/N=N\c2ccc(O)c(/C=N\Nc3ccc([N+](=O)[O-])cc3)c2)cc1` [CBK262111], the viability at 28.5 h, 10 µM came to 97.7%.

In the case of `Cc1ccc(NC(=S)N2CCN(C/C=C/c3ccccc3)CC2)cc1` [CBK264574], the viability at 28.5 h, 10 µM amounted to 98.9%.

Take `CCCC1=NN=C(c2cc(C(F)(F)F)ccc2C(F)(F)F)C1C(=O)OCC` (stereo not drawn) [CBK103527]: the viability at 28.5 h, 10 µM was 118%.

As for `CC(C)c1cc(C(=O)NC2CCN(c3ncccc3C#N)CC2)n(C)n1` [CBK306975], the viability at 28.5 h, 10 µM worked out at 87.1%.

Turning to `CC(C)c1ccc(C(C)NC(=O)Cn2cc(C(=O)NC3CCCCC3)ccc2=O)cc1` (stereo not drawn) [CBK286097], the viability at 28.5 h, 10 µM came out at 100%.

Take `CC1CCN(Cc2ccc(-c3cn(CC(=O)NCc4ccc(Br)cc4F)nn3)cc2)CC1` [CBK165756C]: the viability at 28.5 h, 10 µM worked out at 91.1%.

Still in this data set, the particulars now being: human, hela cells, % viability, bulk resorufin, single well.
`O=C1NC(=O)N(Cc2ccccc2)C(=O)/C1=C/c1ccc(O)c(O)c1` [CBK278181]: the viability at 28.5 h, 10 µM stood at 117%.

In the case of `COc1ccc(CN2CCN(Cc3cc(Br)ccc3O)CC2)cc1` [CBK263640], the viability at 28.5 h, 10 µM was determined as 99.4%.
